Source: paper PMC12627232 (MedComm, 2025)

Legend:
B16F10 syngeneic model = assay: B16F10 syngeneic model; assay type: in vivo; details: C57BL/6J mice, HDAC inhibitors by oral gavage, anti-PD-L1 intraperitoneal, 7-day treatment
Procedure: With the approval of the ethics committee of Shandong University, C57BL/6J mice were purchased from Charles River and fed in SPF conditions at the Model Animal Research Centre of Shandong University. To establish the B16F10 syngeneic model, cells in logarithmic growth phase were trypsinized with 0.25% trypsin, resuspended in sterile PBS, and adjusted to 1 × 10^6 cells/100 µL. The cell suspension (100 µL) was subcutaneously injected into the left axilla. When tumors reached to certain volume, mice were randomized (n = 5/group) and treated with Chidamide, LBH‐589, or SDFZ‐8 by oral gavage and intraperitoneal injection of anti‐PD‐L1. Tumor growth curves were plotted over a 7‐day treatment cycle. All procedures complied with AAALAC International guidelines for humane endpoint criteria.

MDA-MB-231 xenograft = MDA-MB-231 xenograft model; assay type: in vivo, BALB/c-nu mice; details: MDA-MB-231 xenograft, BALB/c-nu mice, 60 mg/kg/day oral gavage, 22 days
Procedure: BALB/c‐nu mice were obtained from Pengyue Co. Ltd. (Jinan, China) and were fed in laminar flow cabinets under specific pathogen‐free (SPF) conditions. With the approval of ethics committee of Shandong University, the animal experiments were conducted. To establish the MDA‐MB‐231 xenograft model, BALB/c‐nu mice (3–4 weeks old and 15–18 g body weight, male) were selected and injected subcutaneously into the armpits with 1.2 × 10^7 MDA‐MB‐231 cells. […] Body weight and tumor size were measured every 3 days during the 22‐day treatment.

[1] = system: immune cells of MC38 syngeneic model; assay: Flow cytometry of tumor-infiltrating and spleen immune cells, MC38 model; assay type: in vivo, C57BL/6J mice
Procedure: After 14 days, the tumors and spleens were split, and cells were isolated to analyze the change in cancer immunity. For TILs, the tumors were incubated with the tumor digestion fluid (collagenase and hyaluronic acid included) and then filtered with a 200‐gauge mesh and centrifuged (100×g, 1 min). The supernatant was centrifuged (400×g, 5 min) and precipitated cells were purified by 40% percoll solution followed by RBC lysis and washing. For splenocytes, the spleen was passed through a 200‐gauge mesh, and splenocytes were collected after RBC lysis and washing.
The prepared cell suspensions were incubated with rat serum at room temperature for 30 min to block the FC‐receptor and incubated with fluorescent antibodies at 4°C for 1 h. For Foxp3 staining, Foxp3/Transcription Factor Staining Buffer Set (eBioscience; #00‐5523‐00) was used. For intracellular cytokines staining, cells were pre‐stimulated with 1 µg/mL ionomycin (Beyotime; #S1672), 50 ng/mL PMA (Sigma; #P1585) and Brefeldin A (BioLegend; #420601) for 4 h. Flow cytometry was conducted with FACS Celesta (BD Biosciences, USA) and analyzed with FlowJo software.

HDAC3/NCOR1 complex = assay: HDACs enzymatic assay HDAC3; assay type: biochemical; details: Class I; mean ± SD of three
Procedure: HDACs enzymatic assays were conducted according to our previous work. […] Substrates (Boc‐Lys(acetyl)‐AMC for HeLa nuclear extract, Ac‐Leu‐Gly‐Lys (Tfa)‐AMC for HDAC4, HDAC5, HDAC6, HDAC7, HDAC9, HDAC10, and HDAC11, Boc‐Lys(triflouroacetyl)‐AMC for HDAC8 and Ac‐Leu‐Gly‐Lys(acetyl)‐AMC for HDAC1, HDAC2, HDAC3) were added to the mixture. The blank group was set to no enzyme or drug but contains substrates and the control group was set to no drug but contains substrates and enzymes to each 96‐well plate. After 30 min of incubation at 37°C, the mixture was terminated with 1 mg/mL trypsin and 3 µM TSA. After another 30 min, the fluorescence intensity was measured using a Varioskan plate reader at 360/460 nm. […] The inhibition curves and IC50 values were simulated and calculated using the log(inhibitor) versus response (three parameters) mode in GraphPad Prism software.

MC38 syngeneic model = assay: MC38 syngeneic model; assay type: in vivo; details: C57BL/6J mice, SDFZ-8 60 mg/kg qd i.g., 14-day treatment
Procedure: C57BL/6J mice were obtained from HFK Bioscience (Beijing, China) and fed in laminar flow cabinets under SPF conditions. With the approval of the ethics committee of Shandong University, the animal experiments were conducted. […]. By the time tumors reached certain volumes, SDFZ‐8 treatment (SDFZ‐8 in PBS solution containing 5% DMSO, 60 mg/kg, qd, i.g.) was started, with five animals per treatment group. Body weight and tumor size were measured every day during the 14‐day treatment.

MDA-MB-231 cells = assay: Western blotting (immunoblotting); assay type: cell-based, human; details: 24 h, western blotting
Text: Anti‐H3 (#13998), anticleaved Caspase‐3 (#9661) and anti‐PARP (#9542) antibody was purchased from Cell Signal Technology (CST). Anti‐Caspase‐3 (T40044) was brought from Abmart. Antitubulin antibody (ab179484) was obtained from Abcam PLC. Anti‐Bcl‐2 (F0125) and anti‐Bax (F0037) antibody were purchased from Selleck Chemicals. Anti‐GAPDH antibody (AF1186) was obtained from Beyotime Inc. The protocol of Western blotting was the same as our previous works. In brief, 2.5 × 10^5 MDA‐MB‐231 cells were treated with different drugs or DMSO (equal volume to experimental groups) for 24 h and lysed with modified RIPA buffer. The cell lysates were added to loading buffer (Beyotime #P0015L) and heated in boiling water for 5 mins and then, together with biomarker (Epizymebiotech; 15–250 kDa), were electrophoresed in SDS‐PAGE gels under 80 V voltage until the biomarker reached the end of gels. Next, SDS‐PAGE gels and PVDF membrane were clipped together to perform transmembrane procedure under 350 mA currency for 1 h. Then after incubation with 5% skim milk, TBST, primary antibody and secondary antibody, the PVDF membrane was treated with ECL chemiluminescence solution (Boster Biological Technology #AR1174) and imaged by the imager (Imager 680 Amersham Imager).

## Nc1cc(F)ccc1NC(=O)c1ccc(CNC(=O)/C=C/c2cccnc2)cc1 [Chidamide, reference compound]
B16F10 syngeneic model
  TGI: 58%

## Cc1[nH]c2ccccc2c1CCNCc1ccc(/C=C/C(=O)NO)cc1 [LBH-589, reference compound]
B16F10 syngeneic model
  TGI: 53%

## O=C(CCCCCCC(=O)Nc1ccccc1)NO [SAHA, Vorinostat, reference compound]
MDA-MB-231 xenograft
  TGI: 60%
[1]
  PD-L1 and PD-1 expression in tumor-infiltrating immune cells: upregulated
  surface expression of MHC class II in DCs and macrophages: only impacted MHC II in DCs
[1]; CD206 marker
  M2 polarization of TAMs: suppressed
[1]; iNOS marker
  M1 polarization of TAMs: robustly promoted
[1]; spleen
  PD-1 expression in spleen CD4+ T cells and NK cells: downregulated
  PD-L1 expression in spleen DCs and macrophages: upregulated
  proportion of CD4+ T cells, CD8+ T cells and NK cells in the spleen: did not induce such effects
[1]; tumor
  expression of IFN-γ and TNF-α in CD4+ T cells and CD8+ T cells: upregulation
HDAC3/NCOR1 complex
  IC50: 45 ± 20 nM
MC38 syngeneic model
  TGI: 50%
MDA-MB-231 cells
  level of acetylated histone H3 (Ac-H3): upregulation
  level of acetylated tubulin (Ac-tubulin): upregulation

## atezolizumab [anti-PD-L1]
B16F10 syngeneic model
  TGI: 62%
